Test results published in patent US8883963B2 (Cadila Healthcare Limited, priority 2007, dated 2014).

Columns and labels:
[1] = tested on: RIN5F (Rat Insulinoma) cells; assay: In vitro glucose-dependent insulin secretion (RIN5F cell assay screening protocol); format: cell-based; details: 16.7 mM glucose load
Human GLP-1 receptor = molecular target: T1, Human GLP-1 receptor (Homo sapiens, UniProt P43220); assay: In vitro Human GLP-1 R agonist activity (cyclic AMP determination) in CHO/human GLP1R cells; format: cell-based
T1 construct: The full-length cDNA was cloned in pcDNA3.1(+); expressed in transfected cells

human glucagon receptor = molecular target: T2, human glucagon receptor (Homo sapiens, UniProt P47871); assay: In vitro human glucagon antagonist activity (inhibition of cAMP production) in CHO/human glucagon R cells; format: cell-based; details: with saturated concentration of glucagon peptide
T2 construct: The full-length cDNA was cloned in pcDNA3.1 (Invitrogen); expressed in transfected cells

DPP IV = DPP IV (Homo sapiens, UniProt P27487); assay: Stability against DPP IV enzyme; format: in vitro ADME; details: 37° C.; for % degradation of peptidomimetics in 24 h when incubated with DPP-IV enzyme: 2 μM peptidomimetic; for half-life at 2 μM: DPP IV enzyme, pH 7.8, 2 μM peptidomimetic, read-out: half-life (t1/2) when incubated with DPP-IV enzyme
Protocol: (§1) Reactions were terminated by the addition of TFA/H2O (15 mL, 10% (v/v)). […] The column was equilibrated with TFA/H20, at a flow rate of 1 mL/min.

[2] = Stability in human plasma; format: in vitro ADME; details: 2 μM peptidomimetic, pooled human plasma, 37° C.; for half-life at 2 μM: pH 7.8, read-out: half-life (t1/2) when incubated with human plasma
Protocol: as §1

[3] = Stability in simulated gastric fluid; format: in vitro ADME; details: 2 μM peptidomimetic, simulated gastric fluid pH 1.5, 37° C.; for half-life at 2 μM: read-out: half-life (t1/2) when incubated with simulated gastric fluid
Protocol: as §1

[4] = Stability in simulated intestinal fluid; format: in vitro ADME; details: 2 μM peptidomimetic, simulated intestinal fluid pH 7.5, 37° C.; for half-life at 2 μM: read-out: half-life (t1/2) when incubated with simulated intestinal fluid
Protocol: as §1

[5] = Stability in liver microsomes; format: in vitro ADME; details: 2 μM peptidomimetic, human liver microsomes, 37° C.; for half-life at 2 μM: pH 7.8, read-out: half-life (t1/2) when incubated with liver microsomes
Protocol: as §1

T2 sequence (P47871 26-477): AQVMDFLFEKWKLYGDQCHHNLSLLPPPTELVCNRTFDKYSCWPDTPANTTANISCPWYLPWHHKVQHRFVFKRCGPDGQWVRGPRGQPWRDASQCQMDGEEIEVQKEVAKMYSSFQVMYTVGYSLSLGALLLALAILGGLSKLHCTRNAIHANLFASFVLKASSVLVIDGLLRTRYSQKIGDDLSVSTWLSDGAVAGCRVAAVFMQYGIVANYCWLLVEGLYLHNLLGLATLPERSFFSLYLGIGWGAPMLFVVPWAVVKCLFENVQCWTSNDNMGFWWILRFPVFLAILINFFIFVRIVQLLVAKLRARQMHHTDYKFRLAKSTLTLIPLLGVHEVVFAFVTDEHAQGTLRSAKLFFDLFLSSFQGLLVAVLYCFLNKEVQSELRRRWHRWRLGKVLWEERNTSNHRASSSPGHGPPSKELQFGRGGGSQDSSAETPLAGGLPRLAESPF
T1 sequence (P43220 24-463): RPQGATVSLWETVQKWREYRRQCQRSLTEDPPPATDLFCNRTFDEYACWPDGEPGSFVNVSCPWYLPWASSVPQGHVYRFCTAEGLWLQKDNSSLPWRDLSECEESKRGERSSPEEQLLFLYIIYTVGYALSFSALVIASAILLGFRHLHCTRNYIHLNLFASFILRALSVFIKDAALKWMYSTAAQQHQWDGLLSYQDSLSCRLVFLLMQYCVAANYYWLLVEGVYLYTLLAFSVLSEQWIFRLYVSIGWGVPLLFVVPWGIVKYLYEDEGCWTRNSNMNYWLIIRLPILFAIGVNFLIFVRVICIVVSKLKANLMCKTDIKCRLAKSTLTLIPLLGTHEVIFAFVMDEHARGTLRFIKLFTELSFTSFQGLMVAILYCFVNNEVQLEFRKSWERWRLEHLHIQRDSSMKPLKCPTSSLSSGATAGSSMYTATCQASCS
Sequence of DPP IV (P27487 whole entry, species assumed): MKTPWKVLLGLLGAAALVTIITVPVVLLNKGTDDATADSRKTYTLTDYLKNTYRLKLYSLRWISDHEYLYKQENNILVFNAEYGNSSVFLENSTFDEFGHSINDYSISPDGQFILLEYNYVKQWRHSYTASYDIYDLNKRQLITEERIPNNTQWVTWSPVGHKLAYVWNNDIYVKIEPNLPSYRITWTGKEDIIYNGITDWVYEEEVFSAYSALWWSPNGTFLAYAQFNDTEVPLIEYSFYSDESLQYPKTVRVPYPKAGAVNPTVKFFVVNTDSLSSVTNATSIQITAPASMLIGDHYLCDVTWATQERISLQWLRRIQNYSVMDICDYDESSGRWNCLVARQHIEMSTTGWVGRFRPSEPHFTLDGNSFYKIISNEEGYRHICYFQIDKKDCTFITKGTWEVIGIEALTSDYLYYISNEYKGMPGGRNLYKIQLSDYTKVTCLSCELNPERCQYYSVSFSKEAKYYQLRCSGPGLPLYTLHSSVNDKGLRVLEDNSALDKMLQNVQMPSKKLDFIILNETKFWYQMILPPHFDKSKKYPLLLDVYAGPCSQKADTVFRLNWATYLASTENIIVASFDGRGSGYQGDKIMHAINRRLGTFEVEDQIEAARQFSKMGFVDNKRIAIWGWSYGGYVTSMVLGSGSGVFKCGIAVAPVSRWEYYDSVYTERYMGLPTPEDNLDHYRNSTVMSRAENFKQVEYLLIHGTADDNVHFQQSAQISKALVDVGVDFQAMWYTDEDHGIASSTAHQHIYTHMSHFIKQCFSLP

SMILES	Insulin secretion ([1]; 0.1 nM test compd.)	Insulin secretion ([1]; 1 nM test compd.)	Insulin secretion ([1]; 10 nM test compd.)	Human GLP-1 R activity (cAMP release), % activity with respect to control (Human GLP-1 receptor; 1 nM test compound)	Human GLP-1 R activity (cAMP release), % activity with respect to control (Human GLP-1 receptor; 10 nM test compound)	Human GLP-1 R activity (cAMP release), % activity with respect to control (Human GLP-1 receptor; 100 nM test compound)	Human GLP-1 R activity (cAMP release), % activity with respect to control (Human GLP-1 receptor; 1 μM test compound)	Human GLP-1 R activity (cAMP release), % activity with respect to control (Human GLP-1 receptor; 10 μM test compound)	Human Glucagon receptor antagonistic activity shown as inhibition of cAMP production of Glucagon peptide (human glucagon receptor; 1 nM test compound)	Human Glucagon receptor antagonistic activity shown as inhibition of cAMP production of Glucagon peptide (human glucagon receptor; 10 nM test compound)	Human Glucagon receptor antagonistic activity shown as inhibition of cAMP production of Glucagon peptide (human glucagon receptor; 100 nM test compound)	Human Glucagon receptor antagonistic activity shown as inhibition of cAMP production of Glucagon peptide (human glucagon receptor; 1 μM test compound)	Human Glucagon receptor antagonistic activity shown as inhibition of cAMP production of Glucagon peptide (human glucagon receptor; 10 μM test compound)	% degradation of peptidomimetics in 24 h when incubated with DPP-IV enzyme (DPP IV)	% degradation of peptidomimetics in 24 h when incubated with human plasma [2]	% degradation of peptidomimetics in 24 h when incubated with simulated gastric fluid [3]	half-life at 2 μM [3]	% degradation of peptidomimetics in 24 h when incubated with simulated intestinal fluid [4]	half-life at 2 μM [4]	% degradation of peptidomimetics in 24 h when incubated with liver microsomes [5]	other results
CCc1cc(OC)ccc1-c1ccc(CC(NC(=O)[C@H](CC(=O)O)NC(=O)[C@H](CO)NC(=O)[C@@H](NC(=O)[C@H](Cc2ccccc2)NC(=O)[C@@H](NC(=O)CNC(=O)[C@H](CCC(N)=O)NC(=O)[C@H](CO)NC(=O)[C@@H](N)Cc2c[nH]cn2)[C@@H](C)O)[C@@H](C)O)C(=O)NC(CCCc2ccccc2F)C(N)=O)cc1 (single isomer, unassigned) [compound 45]	11.8 ± 0.50 pg/µg/h	14.9 ± 0.11 pg/µg/h	27.9 ± 0.31 pg/µg/h	51 ± 0.03%	86 ± 0.40%	91 ± 0.21%	99 ± 0.32%	99 ± 0.21%	15 ± 0.11 pmol/ml/μg prt	12 ± 0.13 pmol/ml/μg prt	8 ± 0.09 pmol/ml/μg prt	4 ± 0.01 pmol/ml/μg prt	2 ± 0.08 pmol/ml/μg prt	77%	80%	100%	0.5 h	100%	0.5 h	100%	half-life (t1/2) when incubated with human plasma [2]: (9) h; half-life at 2 μM [5]: 0.5 h
CCc1cc(OC)ccc1-c1ccc(CC(CNC(CCCc2ccccc2F)C(N)=O)NC[C@H](CC(=O)O)NC(=O)[C@H](CO)NC(=O)[C@@H](NC(=O)C(C)(Cc2ccccc2F)NC(=O)[C@@H](NC(=O)CNC(=O)[C@H](CCC(N)=O)NC(=O)C(C)(C)NC(=O)[C@H](Cc2c[nH]cn2)NC(=O)OC)[C@H](C)O)[C@H](C)O)cc1 (single isomer, unassigned) [compound 200]	16.5 ± 0.12 pg/µg/h	22.7 ± 0.17 pg/µg/h	36.5 ± 0.05 pg/µg/h	55 ± 0.16%	88 ± 0.13%	92 ± 0.11%	99 ± 0.07%	99 ± 0.09%	10 ± 0.16 pmol/ml/μg prt	8 ± 0.12 pmol/ml/μg prt	6 ± 0.14 pmol/ml/μg prt	4 ± 0.15 pmol/ml/μg prt	1 ± 0.12 pmol/ml/μg prt	00%	00%	52%	4 h	00%	> 24 h	81%	half-life at 2 μM (DPP IV): > 24 h; half-life at 2 μM [2]: > 24 h; half-life at 2 μM [5]: 2 h
CCc1cc(OC)ccc1-c1ccc(CC(NC(=O)[C@H](CC(=O)O)NC(=O)[C@H](CO)NC(=O)[C@@H](NC(=O)C(C)(Cc2ccccc2F)NC(=O)[C@@H](NC(=O)CNC(=O)C(CCC#N)NC(=O)C(C)(C)NC(=O)[C@@H](N)Cc2c[nH]cn2)[C@H](C)O)[C@H](C)O)C(=O)NC(CCCc2ccccc2)C(N)=O)cc1 (single isomer, unassigned) [compound 114]	16.6 ± 0.41 pg/µg/h	22.9 ± 0.32 pg/µg/h	36.6 ± 0.19 pg/µg/h	82 ± 0.22%	87 ± 0.12%	92 ± 0.14%	99 ± 0.22%	99 ± 0.26%	4 ± 0.02 pmol/ml/μg prt	2 ± 0.15 pmol/ml/μg prt	0 pmol/ml/μg prt	0 pmol/ml/μg prt	0 pmol/ml/μg prt	00%	00%	52%	4 h	00%	> 24 h	81%	half-life at 2 μM (DPP IV): > 24 h; half-life at 2 μM [2]: > 24 h; half-life at 2 μM [5]: 2 h
CCc1cc(OC)ccc1-c1ccc(CC(NC(=O)[C@H](CC(=O)O)NC(=O)[C@H](CO)NC(=O)[C@@H](NC(=O)[C@H](Cc2ccccc2)NC(=O)[C@@H](NC(=O)CNC(=O)C(CCC#N)NC(=O)C(C)(C)NC(=O)[C@@H](N)Cc2c[nH]cn2)[C@@H](C)O)[C@@H](C)O)C(=O)NC(CCCc2cc(C)cc(C)c2)C(N)=O)cc1 (single isomer, unassigned) [compound 30]	17.1 ± 0.11 pg/µg/h	23.1 ± 0.16 pg/µg/h	37.0 ± 0.29 pg/µg/h	38 ± 0.12%	78 ± 0.15%	86 ± 0.18%	95 ± 0.03%	98 ± 0.09%	22 ± 0.03 pmol/ml/μg prt	21 ± 0.05 pmol/ml/μg prt	20 ± 0.07 pmol/ml/μg prt	18 ± 0.04 pmol/ml/μg prt	18 ± 0.03 pmol/ml/μg prt	00%	00%	00%	> 24 h	00%	> 24 h	33%	half-life at 2 μM (DPP IV): > 24 h; half-life at 2 μM [2]: > 24 h; half-life (t1/2) when incubated with liver microsomes [5]: (5) h
